Data on two substances can be found in article PMC3864132 (Cancer immunology, immunotherapy : CII, 2013).

The subject of series [1] is metastatic melanoma patients. The following applies: in combination with IL-2, metastatic melanoma patients; cited from earlier work.
The subject of a further series is HHD mice. The settings on record: mean from 3 mice ± SD.
The test system of another series is HHD×ERG^pb/pb mice. The following applies: mouse, in vivo; SD.

For the substance “gp100:209:217(210M): HLA-A*0201 restricted melanoma epitope (IMDQVPFSV; UniProt P40967 209-217, looked up, variant T210M)”, the Median overall survival result in series [1] was “significantly improved median overall survival”.

Regarding QLWQFLLEL [ERG295], the “ERG295 responsive cells per million splenocytes” value with HHD mice (HHD mice around 16 weeks old, 1 immunization) is given as 275 ± 45 per million splenocytes; with HHD×ERG^pb/pb mice, 177 ± 51 per million splenocytes. For the same substance, the “ERG295 responsive T-cells” value in the series with HHD mice (HHD mice, 3 immunizations at 7-day intervals) was 405 ± 120; in the series with HHD×ERG^pb/pb mice, 305 ± 49.
